Measured values: patent publication US20220265644A1, “FIXED DOSE COMBINATION DRUG FOR THE TREATMENT OF MALARIA” (priority 2020, published 2022)

Legend:
P. vivax [1] = experiment: Synriam Phase III, N=317, randomized, open label, multi-centric, uncomplicated P. vivax malaria; format: in vivo; conditions: Adults, Children >12 - 65 Y
P. vivax [2] = experiment: Synriam Phase III, N=164, randomized, open label, multi-centric, uncomplicated P. vivax malaria; format: in vivo; conditions: Children 6 months - 12 Y
[3] = system: early ring stages from artemisinin-resistant and artemisinin-sensitive parasites (P. falciparum); experiment: Ring Stage Assay (RSA) as per WHO's recommendation; format: cell-based; conditions: at 700 nM

## CCN(CC)CCCC(C)Nc1ccnc2cc(Cl)ccc12 (stereo not shown) [Chloroquine]
P. vivax [1]; 72 h, ITT
  Proportion of aparasitemic & afebrile patients at 72 h (%) ITT: 98.7%
P. vivax [1]; 72 h, PP
  Proportion of aparasitemic & afebrile patients at 72 h (%) PP: 99.3%
P. vivax [1]; India
  FCT Median (h): 24 vs. 24 h
  PCT Median: 26 h
P. vivax [2]; 72 h, ITT
  Proportion of aparasitemic & afebrile patients at 72 h (%) ITT: 100%
P. vivax [2]; 72 h, PP
  Proportion of aparasitemic & afebrile patients at 72 h (%) PP: PP: 100 vs. 100%
P. vivax [2]; India
  FCT Median: 18 h
  PCT Median: 24 h

## Arterolane
[3]
  cross-resistance to DHA: no cross-resistance to DHA
[3]; artemisinin-resistant and artemisinin-sensitive parasites
  activity against early ring stages: extremely active
